Data on 26 molecules can be found in patent US20120020958A1, “FIBCD1 FOR THE PREVENTION AND TREATMENT OF DISEASES” (Dansk Universitet, priority 2008, published 2012).

Where two headings read alike, the source gives them in different places.

In assay [1] the target is T1, FIBCD1 ectodomain (Homo sapiens, UniProt Q8N539).
T1 construct: The V5-His tagged putative ectodomain of FIBCD1, encoding amino acid 54-461, was generated by PCR; made in house; host or cells: HEK293 (Flp-In T-REx), secreted via pSecTag/FRT/V5-His TOPO vector
T1 sequence (Q8N539 54-461): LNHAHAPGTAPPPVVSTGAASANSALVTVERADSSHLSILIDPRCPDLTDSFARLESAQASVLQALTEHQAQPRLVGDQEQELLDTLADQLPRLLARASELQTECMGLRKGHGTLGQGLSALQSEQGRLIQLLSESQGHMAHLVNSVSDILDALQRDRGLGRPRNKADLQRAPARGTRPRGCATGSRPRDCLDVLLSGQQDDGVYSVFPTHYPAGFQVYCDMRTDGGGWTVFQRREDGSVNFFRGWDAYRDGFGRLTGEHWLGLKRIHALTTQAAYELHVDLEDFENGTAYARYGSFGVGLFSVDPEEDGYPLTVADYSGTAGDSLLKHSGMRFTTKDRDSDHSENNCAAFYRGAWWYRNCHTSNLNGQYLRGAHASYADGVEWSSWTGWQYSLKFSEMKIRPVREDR
In words: ELISA inhibition of binding between FIBCD1 ectodomain and acetylated BSA. Particulars: for IC50: read-out: I50 of the binding between FIBCD1 and acetylated BSA; for inhibition of binding of FIBCD1 to acetylated BSA: at a concentration of 50 mM; for I50 relative (relative inhibitor potential): I50 of the best inhibitor divided by I50 of the compound. The procedure:
The ligand selectivity of FIBCD1 was investigated by inhibiting the binding of FIBCD1 ectodomain to acetylated BSA coated microtiter plates (FIG. 2G, Table 1).
(§1) An ELISA system was used to evaluate the ability of various acetylated and nonacetylated compounds to inhibit the binding between FIBCD1 ectodomain and acetylated BSA (Sigma). Microtiter plates (NUNC Maxisorp, Denmark) were coated with acetylated BSA (Sigma) or BSA (Sigma) and blocked with TBS/Tw before being incubated with FIBCD1 ectodomain samples diluted in TBS/Tw (5 mM CaCl2). The binding between FIBCD1 and acetylated BSA was also tested in the presence of 10 mM EDTA, 5 mM MnCl2 or 5 mM MgCl2 instead of CaCl2. After incubation overnight at 4° C. and washing, the wells were incubated for 2 h at room temperature with chicken anti-FIBCD1 antibodies diluted 1:1000 in TBS/Tw (5 mM CaCl2). The plates were washed with TBS/Tw (5 mM CaCl2) and incubated for 1 h with alcalic phosphatase-labelled anti-chicken IgY (whole molecule) (Sigma-Aldrich) diluted 1:1500 in TBS/Tw (5 mM CaCl2) followed by washing and developed with 1 mg/ml para-nitrophenylphosphate, disodium salt (PNPP) (Boehringer Mannheim, Germany) in substrate buffer.
The mixtures were incubated overnight in the acetylated BSA coated wells overnight at 4° C. and processed as described above.
(An ELISA detects its analyte on a solid surface through an enzyme-linked reagent.)

Assay [2] concerns CHO cells transfected with FIBCD1 cDNA. In words: FIBCD1-mediated endocytosis of acetylated BSA in CHO cells. It is filed as cell-based, Chinese hamster. Particulars: for uptake and degradation of 125I labelled acetylated BSA: GlcNAc at 10 mM. How it is done: Degradation was measured, as the cell-mediated increase in of TCA-soluble radioactivity in the growth medium and cell-associated was determined by counting the radioactivity of the cell lysate. (A) CHO cells and (B) CHO/FIBCD1 cells. (C) Effect of lysosomal inhibitors chloroquine and leupeptin (both 100 μM) on endocytosis of NAc-BSA. Values are mean+/−1 SD of triplicate samples. […] Fluorescence microscopy of CHO-FReD (E) and CHO (F) after incubation with Alexa488 acetylated BSA.

Assay [3] concerns the target T2, FIBCD1 (Homo sapiens, UniProt Q8N539).
T2 construct: The V5-His tagged putative ectodomain of FIBCD1, encoding amino acid 54-461, was generated by PCR; made in house; host or cells: HEK293 (Flp-In T-REx), secreted via pSecTag/FRT/V5-His TOPO vector
T2 sequence (Q8N539 54-461): T1 sequence (Q8N539 54-461)
The assay is described as follows: ELISA binding of FIBCD1 to coated microtiter plates. Particulars: for substitution for calcium in binding to acetylated BSA: 5 mM MnCl2 or 5 mM MgCl2 instead of CaCl2; for binding of FIBCD1 to coated substance: ELISA, microtiter plates coated with the substance. How it is done:
(A) SDS-PAGE and Western blotting analysis of culture supernatant from HEK293 cells expression FIBCD1 in the non-reduced (lane 1) and reduced (lane 2) state developed with the monoclonal rat anti-FIBCD1 (HG-HYB-12-2). […] (D) Silver stained SDS-PAGE of fractions from (E) in the reduced and unreduced state. (E) Microtiterplates were coated with BSA or NAc-BSA and increasing amounts of FIBCD1 was added in the presence 5 mM CaCl2 or 10 mM EDTA. (F) Microtiterplates were coated with NAc-BSA and 100 ng/ml and FIBCD1 was added in the presence 0-1 mM CaCl2. (G) Microtiterplates were coated with NAc-BSA and increasing amounts of FIBCD1 was added in the presence 5 mM CaCl2, 5 mM MgCl2 or 5 mM MnCl2.
(A) Microtiter plates were coated with LPS 055, LPS 0111 LPS 026 or NAc-BSA. (B) Microtiterplates were coated with LTA, mannan, peptidoglycan or NAc-BSA and increasing concentrations of FIBCD1 was added. (C) Pull-down assays where 20 μg of the FIBCD1 (the FReD of FIBCD1) or as a positive control 20 μg of wheat germ agglutinin (WGA) was added to 2 mg insoluble chitin, cellulose, zymozane or beta-glucan. […] BSA was used as control. Pellet fractions were analyzed by SDS-PAGE and Coomassie blue staining.
as §1

For assay [4], the target named is T3, FIBCD1 (the FReD of FIBCD1) (Homo sapiens, UniProt Q8N539).
T3 construct: 20 μg of the FIBCD1 (the FReD of FIBCD1)
T3 sequence (Q8N539 235-458 limits assumed): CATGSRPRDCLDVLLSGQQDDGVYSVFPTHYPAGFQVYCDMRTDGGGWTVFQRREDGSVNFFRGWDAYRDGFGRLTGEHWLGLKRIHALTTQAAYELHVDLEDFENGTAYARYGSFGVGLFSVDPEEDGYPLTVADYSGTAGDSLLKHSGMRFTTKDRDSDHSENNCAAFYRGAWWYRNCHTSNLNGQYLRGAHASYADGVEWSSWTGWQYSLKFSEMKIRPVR
In words: Pull-down assay of FIBCD1 (FReD) with insoluble polysaccharides. It is filed as binding. Particulars: 20 μg FIBCD1 FReD, 2 mg insoluble substance. The procedure: (B) Microtiterplates were coated with LTA, mannan, peptidoglycan or NAc-BSA and increasing concentrations of FIBCD1 was added. (C) Pull-down assays where 20 μg of the FIBCD1 (the FReD of FIBCD1) or as a positive control 20 μg of wheat germ agglutinin (WGA) was added to 2 mg insoluble chitin, cellulose, zymozane or beta-glucan. […] BSA was used as control. Pellet fractions were analyzed by SDS-PAGE and Coomassie blue staining.

Where [5] appears, read: 100 ng/ml FIBCD1 ectodomain, 5 mM CaCl2, N.I. = less than 50% inhibition at 50 mM.

With `CC(=O)OCC[N+](C)(C)C` [Acetylcholine, acetyl cholin], in assay [1], the IC50 was found to be 10 mM.
On to `C[C@H](N)C(=O)O` [Alanine, L-alanine, reference compound], for which, in assay [1] (setting [5]), the “I50 of the binding between FIBCD1 and acetylated BSA” value was “N.I”.
In the case of `CCCC(=O)[O-].[Na+]` [Butyrate, sodium butyrate, reference compound], in assay [1] (setting [5]), the “I50 of the binding between FIBCD1 and acetylated BSA” value was “N.I”. The “inhibition of binding of FIBCD1 to acetylated BSA” value in assay [1] is “did not inhibit”.
Consider `O=C[C@H](O)[C@@H](O)[C@@H](O)[C@H](O)CO` [Galactose, galactose, reference compound], for which the “I50 of the binding between FIBCD1 and acetylated BSA” value in assay [1] (setting [5]) is listed as “N.I”.
On the same count and under the same terms, with `N[C@H]1C(O)O[C@H](CO)[C@H](O)[C@@H]1O` (some centres unmarked) [Galactoseamin, galactosamine, reference compound] the entry was “N.I”; with `N[C@H]1C(O)O[C@H](CO)[C@@H](O)[C@@H]1O` (some centres unmarked) [Glucosamine, glucosamine, reference compound], “N.I”.
For the molecule `N[C@@H]1C(O)O[C@H](CO)[C@@H](O)[C@@H]1O` (some centres unmarked) [Mannosamine, mannosamine, reference compound], in assay [1] (setting [5]), the “I50 of the binding between FIBCD1 and acetylated BSA” value is on record as “N.I”.
`CC(=O)N[C@@H](C)C(=O)O` [N-acetylalanine]: in assay [1], the “I50 relative (relative inhibitor potential)” value is 0.5 and the IC50 was found to be 4 mM.
On to `CC(=O)N[C@@H]1[C@@H](O)[C@@H](O)[C@@H](CO)O[C@@H]1O` [N-acetylgalactoseamine], for which the IC50 in assay [1] (setting [5]) was found to be 5 mM. The “I50 relative (relative inhibitor potential)” value in assay [1] is on record as 0.4.
On to `CC(=O)N[C@H]1C(O)O[C@H](CO)[C@@H](O)[C@@H]1O` (some centres unmarked) [N-acetylglucosamine, N-acetyl glucosamine], for which, in assay [1], the “I50 relative (relative inhibitor potential)” value is given as 0.5 and the IC50 came to 4 mM. For the same molecule, the “uptake and degradation of 125I labelled acetylated BSA” value in assay [2] (CHO/FIBCD1 cells) is “inhibited”.
Regarding `CC(=O)N[C@@H]1C(O)O[C@H](CO)[C@@H](O)[C@@H]1O` (some centres unmarked) [N-acetylmannoseamine, N-acetyl mannosamine], in assay [1], the “I50 relative (relative inhibitor potential)” value is listed as 1 and the IC50 is 2 mM.
`CCC(=O)[O-].[Na+]` [Propionate, sodium propionate, reference compound]: in assay [1] (setting [5]), the “I50 of the binding between FIBCD1 and acetylated BSA” value was “N.I”. Moreover, in assay [1], the “inhibition of binding of FIBCD1 to acetylated BSA” value is “did not inhibit”.
Take `CC(=O)N[C@H]1[C@H]([C@H](O)[C@H](O)CO)OC(O)(C(=O)O)C[C@@H]1O` (some centres unmarked) [Sialic acid, N-acetylneuraminic acid]: in assay [1], the “I50 relative (relative inhibitor potential)” value was determined as 1 and the IC50 was 2 mM.
Turning to `[Ca+2].[Cl-].[Cl-]` [calcium, calcium chloride], the “calcium concentration for optimum binding to acetylated BSA” value in assay [3] (100 ng/ml FIBCD1, 0-1 mM CaCl2) is listed as 0.6 mM.
For `[Mg]` [magnesium], in assay [3], the “substitution for calcium in binding to acetylated BSA” value is given as “could not”.
For the molecule `[Mn+2]` [manganese], in assay [3], the “substitution for calcium in binding to acetylated BSA” value was “could substitute for calcium”.
Consider “Alexa488 labelled acetylated BSA: acetylated BSA coupled with Alexa Fluor 488 C5 maleimide”, for which, in assay [2] (fluorescence microscopy), the “uptake in CHO cells transfected with FIBCD1 cDNA” value was “mediate uptake”. Moreover, the “uptake in non-transfected CHO cells” value in assay [2] is “no uptake”.
Regarding N-acetyl bovine serum albumin [NAc-BSA], the “binding of FIBCD1 to coated substance” value is listed as “binding” in assay [3] and “bound” in assay [3] (listed as acetylated BSA). Besides, the “uptake and degradation of 125I labelled acetylated BSA” value in assay [2] (CHO/FIBCD1 cells) is “inhibited”.
“^125I-labeled NAc-BSA: acetylated BSA labelled with 125I using the chloroamine-T method”: in assay [2] (CHO/FIBCD1 cells, 37° C.), the “time at which cell-associated radioactivity reached a plateau” value was “one”. Moreover, the “uptake in non-transfected CHO cells” value in assay [2] was “no uptake”.
With cellulose, the “binding of FIBCD1 in pull-down” value in assay [4] is “no binding”.
On to lipopolysaccharide [LPS], for which the “binding of FIBCD1 to coated substance” value in assay [3] is “no binding”.
Same read-out and setting: with lipoteichoid acid [LTA] the entry was “no binding”; with mannan, “no binding”; with peptidoglycan, “no binding”.
For zymosan, the “binding of FIBCD1 in pull-down” value in assay [4] is listed as “no binding”.
Take β-1,3-glucan: in assay [4], the “binding of FIBCD1 in pull-down” value was “no binding”.
